Data on 1 compound can be found in PMC8602566 (Frontiers in Oncology, 2021).

In general, IC50 refers to the concentration at which inhibition is half-maximal. Usually microsomal CLint stands for the capacity of the preparation to metabolise the compound, expressed as a volume cleared per time.

For one data set, the target named is HDAC8 (Homo sapiens, UniProt Q9BY41). Briefly: HDACs inhibition assay, HDAC8.
Data set [1] has as its system Human glioma cell line SHG44. Put plainly: MTT cell viability assay, SHG44. The note with it: SHG-44, MTT, 72 h, read-out: IC50 antiproliferative activity SHG44. It is filed as cell-based. The protocol:
(§1) Cell viability was measured using the 3-(4,5-dimethylthiazol-2-yl)-2,5-diphenyltetrazolium bromide (MTT) assay and was expressed as a ratio to the absorbance value at 570 nm of the control cells.

A further data set addresses SIRT1 (Homo sapiens, UniProt Q96EB6). Briefly: HDACs inhibition assay, SIRT1.
The test system of the next data set is U87 tumor xenograft. The note with it: nude mice, 20 mg/kg once daily. From the text:
Six-week-old BALB/c nude mice were purchased from Shanghai Experimental Animal Center of Chinese Academy of Science (Shanghai, China). All animal protocols were implemented according to the guidelines of the Association for Assessment and Accreditation of Laboratory Animal Care. U87 cells (3 × 10^6) were subcutaneously implanted into the right flank of mice. After 6 days of tumor growth, tumors grew to approximately 100 mm^3, and mice were randomly divided into three groups with nine animals in each group. […] The control group was intraperitoneally injected an equal volume of DMSO. Body weights and tumor volumes were measured every 2 days. After treatment, all of the mice were sacrificed, and the tumors were harvested, weighted, and photographed. The tumor volume was calculated according the formula: tumor volume = (length × width^2)/2.
U87 cells were subcutaneously inoculated into the right flank of mice.

Data set [2] in a line: Hepatic microsome stability assay, rat. It counts as in vitro ADME. The note with it: rat liver microsomes, NADPH, 37°C, pH 7.4. The protocol:
(§2) Metabolic stability was assessed in the presence of human, mouse, and rat liver microsomes (XenoTech, Lenexa, KS, USA). All liquid dispenses and transfer steps were performed with the Freedom Evo automated liquid handler (Tecan US). Compound stock solutions were initially prepared in 100% DMSO and subsequently diluted in acetonitrile for the assay. The pH of the reactions was kept at 7.4 with potassium phosphate buffer. The reaction wells were prepared by adding microsomes to a well and allowed to warm to 37°C. Then, compound was added to each well. The reactions were […] by adding cofactor reduced nicotinamide adenine dinucleotide phosphate (NADPH) to the reaction well containing microsomes and compounds. Negative controls received buffer only. Immediately after reactions started, 0-min aliquots were promptly collected and mixed in a separate well with ice cold acetonitrile to quench the reactions. The remainder of the reaction volume was incubated at 37°C with shaking. An additional aliquot was collected at 60 min after the start of the reaction and promptly quenched with ice cold acetonitrile. Samples were vortexed and centrifuged at 3,500 rpm for 10 min. The amount of compound in the supernatant was determined by liquid chromatography–tandem mass spectrometry (LC/MS/MS) (Thermo Fischer Scientific, San Jose, CA, USA), and the percent of parent compound remaining after 60 min was calculated. Results are the mean of each reaction triplicate, normalized to the internal standard, and expressed as the percent of compound remaining after the incubation time.
(§3) Structures that are active in vitro may not be potent in vivo due to their susceptibility to metabolism in the body. We then thoroughly examined the liver microsomal metabolic stability of DMC-HA across three different species (Table 3). […] In addition, the half-life of DMC-HA in human microsome is generally two to three times longer than those in mice and rats. Collectively, the in vitro liver microsomal stability of DMC-HA is favorable, guaranteeing its further in vivo studies.

In the next data set the test system is U87 cells. Briefly: Cell apoptosis assay by flow cytometry (Annexin V-FITC/PI). The note with it: 10 μM, Annexin V/PI (control 3.3%). It counts as cell-based, Human. The protocol:
For apoptosis assays, 5 × 10^5 U87 cells were seeded into six-well plates for 24 h and treated with a range of concentrations of DMC-HA for 36 h. Annexin V-FITC/PI apoptosis detection kit was used to perform the apoptotic assay following the manufacturer’s instructions (Beyotime, Jiangsu, China). After treatment, 1 × 10^6 cells were washed using 1 ml binding buffer for three times, then centrifuged at 300×g and stained with 10 μl Annexin V-FITC solution at 37°C for 15 min. Before detecting, 5 μl PI solution was added to the samples, and the apoptotic cells were detected using flow cytometry (FACSCalibur BD, BD Biosciences, San Jose, CA, USA).
To further investigate the apoptotic effect of DMC-HA on GBM, we treated U87 cells with increasing concentrations of DMC-HA. After 48 h, the morphological changes of DMC-HA-treated U87 cells were observed, such as cell shrinking, rounding, and detachment (Figure 4A). […] To further confirm whether DMC-HA could induce apoptosis in U87 cells, cells were stained with Annexin V and PI after treatment with various concentrations of DMC-HA.
A general note: In flow cytometry, cells or beads pass a laser one at a time.

Data set [3] in a line: Hepatic microsome stability assay, human. It counts as in vitro ADME. The following applies: human liver microsomes, NADPH, 37°C, pH 7.4. The protocol:
as §2, §3

For data set [4], the system named is Human glioblastoma cell line U251. Briefly: MTT cell viability assay, U251. It is filed as cell-based. The note with it: U-251, MTT, 72 h, read-out: IC50 antiproliferative activity U251. The protocol: as §1
In data set [5] the test system is Human lung cancer cell line A549. Put plainly: MTT cell viability assay, A549. It is filed as cell-based. The following applies: A549, MTT, 72 h, read-out: IC50 antiproliferative activity A549. The protocol: as §1
For orientation: Tetrazolium dyes change colour on reduction, which living cells bring about.

A short description of data set [6]: Plasma and brain distribution study. The note with it: mice, single administration, i.v. 5 mg/kg or p.o. 10 mg/kg. It counts as in vivo. From the text: Discovery of drugs for the treatment of GBM encounters formidable challenges to their ability to cross the blood–brain barrier (BBB) ([31]). Thus, we further investigated the distribution of DMC-HA to identify whether it has the ability to cross the BBB. […] In addition, stable and durable distribution of DMC-HA in the brain was observed after p.o. administration. Nevertheless, optimization for the balance among potency, selectivity, metabolic stability, and brain permeability in a single molecule was challenging. These preliminary results provide valuable information for further structure optimization of DMC-HA and a guidance for its following in vivo studies.
Figure 5 Concentrations of DMC-HA in plasma and brain over time following a single administration in mice. Left, i.v. 5 mg/kg; right, p.o. 10 mg/kg.

Data set [7] can be described thus: Hepatic microsome stability assay, mice. It is filed as in vitro ADME. The following applies: mouse liver microsomes, NADPH, 37°C, pH 7.4. The protocol: as §2, §3
A general note: Liver microsomes are a subcellular fraction often used to study metabolism.

Chain of HDAC8 (Q9BY41 whole entry): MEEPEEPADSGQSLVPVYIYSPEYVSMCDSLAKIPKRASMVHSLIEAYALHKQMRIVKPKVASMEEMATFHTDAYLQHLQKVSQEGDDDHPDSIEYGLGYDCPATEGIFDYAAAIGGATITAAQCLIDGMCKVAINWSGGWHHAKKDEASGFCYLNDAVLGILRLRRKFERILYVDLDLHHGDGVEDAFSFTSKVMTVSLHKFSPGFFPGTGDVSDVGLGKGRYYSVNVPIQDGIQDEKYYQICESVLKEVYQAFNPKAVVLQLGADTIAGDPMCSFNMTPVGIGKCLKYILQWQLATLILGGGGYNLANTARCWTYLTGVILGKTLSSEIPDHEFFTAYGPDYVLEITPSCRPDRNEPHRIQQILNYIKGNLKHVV
Chain of SIRT1 (Q96EB6 whole entry): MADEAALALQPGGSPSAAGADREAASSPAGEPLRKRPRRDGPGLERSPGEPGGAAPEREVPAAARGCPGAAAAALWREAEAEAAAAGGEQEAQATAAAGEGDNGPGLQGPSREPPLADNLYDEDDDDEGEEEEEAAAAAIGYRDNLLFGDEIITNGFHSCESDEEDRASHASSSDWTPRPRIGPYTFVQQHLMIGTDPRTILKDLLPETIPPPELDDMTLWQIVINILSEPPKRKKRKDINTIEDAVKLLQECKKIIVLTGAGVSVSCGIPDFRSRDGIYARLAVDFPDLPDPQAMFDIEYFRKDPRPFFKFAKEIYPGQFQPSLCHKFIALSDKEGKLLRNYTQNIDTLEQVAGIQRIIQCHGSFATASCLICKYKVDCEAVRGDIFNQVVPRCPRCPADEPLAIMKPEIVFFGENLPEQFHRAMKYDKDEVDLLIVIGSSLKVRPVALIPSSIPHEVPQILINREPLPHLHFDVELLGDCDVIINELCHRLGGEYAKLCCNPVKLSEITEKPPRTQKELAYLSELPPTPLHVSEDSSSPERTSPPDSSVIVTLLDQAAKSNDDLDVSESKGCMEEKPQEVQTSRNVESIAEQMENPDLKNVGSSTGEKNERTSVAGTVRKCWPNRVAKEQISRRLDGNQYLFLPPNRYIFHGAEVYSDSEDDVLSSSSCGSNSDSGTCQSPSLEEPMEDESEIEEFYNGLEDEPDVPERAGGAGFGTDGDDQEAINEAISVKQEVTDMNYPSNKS
Description for HDAC8: (§4) The inhibition assays for HDACs were carried out according to standard protocols. […] The reaction was stopped by the addition of 45 μl of 100 mM HEPES (pH 7.5) and 0.08% sodium dodecyl sulfate (SDS). The substrate and the product were then separated electrophoretically using a LabChip 3000 system (Caliper Life Sciences, Hopkinton, MA) with blue laser excitation and green fluorescence detection.
Description for SIRT1: as §4

With `COc1cc(/C=C/C(=O)CC(=O)/C=C/c2ccc(/C=C/C(=O)NO)cc2)ccc1O` [DMC-HA], the 50% inhibitory concentration (IC50) was 2930 nM against HDAC8; 4.62 ± 0.72 µM in data set [1]; > 10 µM against SIRT1; 2990 ± 480 nM in [4]; 5.33 ± 0.93 µM in data set [5]. Besides, in the data set with U87 tumor xenograft, the “effects on the body weight” value is recorded as “no effects on the body weight”. In addition, the “toxicity during the administration period” value in the data set with U87 tumor xenograft was “no observable toxicity”. Further, in the data set on U87 tumor xenograft (compared with controls), the tumor weight entry was “significantly lower tumor weight”. Besides, the “inhibition on the tumor volume” value in the data set on U87 tumor xenograft (oral route / intraperitoneal, vs. control) was 52.1%. Further, in [2], the “Rat Liver Microsomal Stability T1/2” value turned out to be 40.7 min. Also, the values for the microsomal CLint in data set [2], in data set [3] and in data set [7] were 34.2 µL/min/mg, 17.5 µL/min/mg and 43.2 µL/min/mg, respectively. Moreover, in the data set with U87 cells, the total apoptotic cells stood at 90.0%. Further, in data set [3], the “Human Liver Microsomal Stability T1/2” value is given as 91.6 min. Besides, the “ability to cross the BBB” value in data set [6] is “can indeed penetrate the BBB”. Besides, in data set [6] (mouse, brain and plasma, other: intravenous and oral (i.v. and p.o. arms), over time, read-out: brain-to-plasma ratios), the Kp is 0.08 to 0.23. Besides, the “Mice Liver Microsomal Stability T1/2” value in data set [7] came out at 32.7 min.
